Source: patent US20260183275A1, “SUBSTITUTED QUINOLONE COMPOUNDS USEFUL AS INHIBITORS OF TLR9” (Bristol-Myers Squibb Company, priority 2022, published 2026)

Columns and labels:
Format in all cases: cell-based
human TLR9 = biological target: T1, human TLR9 (Homo sapiens, UniProt Q9NR96); test: TLR9 inhibition reporter assay (HEK-Blue cells, SEAP reporter); settings: HEK-Blue cells overexpressing human TLR9; stimulated with ODN2006 5 nM; SEAP read after 22 hour; dose range 0.05 nM-50 μM
T1 construct: host or cells: HEK-Blue cells
T1 sequence (Q9NR96 26-1032): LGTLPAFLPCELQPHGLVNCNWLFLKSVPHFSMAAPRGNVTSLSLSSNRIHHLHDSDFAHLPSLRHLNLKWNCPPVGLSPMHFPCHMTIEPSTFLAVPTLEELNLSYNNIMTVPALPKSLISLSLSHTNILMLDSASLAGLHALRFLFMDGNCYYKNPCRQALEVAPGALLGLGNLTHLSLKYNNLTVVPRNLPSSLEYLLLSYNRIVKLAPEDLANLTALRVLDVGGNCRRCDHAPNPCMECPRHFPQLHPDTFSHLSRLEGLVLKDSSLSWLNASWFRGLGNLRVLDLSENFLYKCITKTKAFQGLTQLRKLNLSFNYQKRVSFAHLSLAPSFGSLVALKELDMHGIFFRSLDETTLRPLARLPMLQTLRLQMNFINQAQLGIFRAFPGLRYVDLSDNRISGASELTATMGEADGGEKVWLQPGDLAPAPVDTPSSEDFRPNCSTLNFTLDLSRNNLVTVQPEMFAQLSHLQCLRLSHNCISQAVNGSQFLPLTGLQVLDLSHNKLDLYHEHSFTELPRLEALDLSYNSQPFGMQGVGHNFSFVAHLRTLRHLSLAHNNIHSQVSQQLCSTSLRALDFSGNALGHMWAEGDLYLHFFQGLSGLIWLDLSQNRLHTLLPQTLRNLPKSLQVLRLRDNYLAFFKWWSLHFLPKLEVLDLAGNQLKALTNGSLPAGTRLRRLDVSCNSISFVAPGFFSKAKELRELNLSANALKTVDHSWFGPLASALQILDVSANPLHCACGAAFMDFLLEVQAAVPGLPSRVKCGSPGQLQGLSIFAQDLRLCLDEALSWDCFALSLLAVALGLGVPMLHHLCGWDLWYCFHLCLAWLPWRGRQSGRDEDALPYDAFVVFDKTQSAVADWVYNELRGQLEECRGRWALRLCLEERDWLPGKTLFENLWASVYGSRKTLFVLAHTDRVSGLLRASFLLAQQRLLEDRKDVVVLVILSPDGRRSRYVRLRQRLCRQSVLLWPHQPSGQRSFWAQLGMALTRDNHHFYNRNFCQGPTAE
Summary of the method: (§1)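 HEK-Blue cells with NF-κB/AP-1-driven SEAP pre-treated 30 min with compounds (0.05 nM-50 μM), then stimulated with gardiquimod 7.5 μM (TLR7), R848 15.9 μM (TLR8) or ODN2006 5 nM (TLR9). SEAP read after 22 h at 37° C; % inhibition relative to agonist+DMSO and reference-inhibitor wells.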

human TLR7 = biological target: T2, human TLR7 (Homo sapiens, UniProt Q9NYK1); test: TLR7 inhibition reporter assay (HEK-Blue cells, SEAP reporter); settings: HEK-Blue cells overexpressing human TLR7; stimulated with gardiquimod 7.5 μM; SEAP read after 22 hour; dose range 0.05 nM-50 μM
T2 construct: host or cells: HEK-Blue cells
T2 sequence (Q9NYK1 27-1049): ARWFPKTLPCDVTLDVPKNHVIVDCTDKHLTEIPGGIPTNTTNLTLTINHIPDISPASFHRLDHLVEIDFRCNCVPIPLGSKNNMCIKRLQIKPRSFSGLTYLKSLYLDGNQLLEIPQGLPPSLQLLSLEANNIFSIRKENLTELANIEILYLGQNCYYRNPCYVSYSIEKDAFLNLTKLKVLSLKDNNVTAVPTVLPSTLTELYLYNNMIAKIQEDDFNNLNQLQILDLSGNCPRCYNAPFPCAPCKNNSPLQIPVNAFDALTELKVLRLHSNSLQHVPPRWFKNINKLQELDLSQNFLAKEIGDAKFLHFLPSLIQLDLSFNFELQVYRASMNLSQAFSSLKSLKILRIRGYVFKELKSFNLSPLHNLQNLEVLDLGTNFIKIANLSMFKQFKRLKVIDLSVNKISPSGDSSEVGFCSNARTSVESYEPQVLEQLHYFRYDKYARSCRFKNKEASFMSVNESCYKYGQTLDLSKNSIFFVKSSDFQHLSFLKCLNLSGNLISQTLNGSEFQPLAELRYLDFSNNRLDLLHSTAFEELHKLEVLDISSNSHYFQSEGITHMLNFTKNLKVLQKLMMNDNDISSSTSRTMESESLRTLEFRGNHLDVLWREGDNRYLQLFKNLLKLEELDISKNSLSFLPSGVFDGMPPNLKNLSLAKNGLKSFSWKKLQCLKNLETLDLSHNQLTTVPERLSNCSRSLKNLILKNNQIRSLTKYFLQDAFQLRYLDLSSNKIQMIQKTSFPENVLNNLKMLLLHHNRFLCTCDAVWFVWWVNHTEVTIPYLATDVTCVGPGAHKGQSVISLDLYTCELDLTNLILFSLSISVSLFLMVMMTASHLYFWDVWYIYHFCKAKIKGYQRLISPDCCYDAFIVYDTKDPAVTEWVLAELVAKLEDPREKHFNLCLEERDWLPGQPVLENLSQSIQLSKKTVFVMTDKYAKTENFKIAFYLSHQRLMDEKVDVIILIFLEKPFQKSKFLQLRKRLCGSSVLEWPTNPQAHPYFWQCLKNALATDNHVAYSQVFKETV
Summary of the method: as §1

human TLR8 = biological target: T3, human TLR8 (Homo sapiens, UniProt Q9NR97); test: TLR8 inhibition reporter assay (HEK-Blue cells, SEAP reporter); settings: HEK-Blue cells overexpressing human TLR8; stimulated with R848 15.9 μM; SEAP read after 22 hour; dose range 0.05 nM-50 μM
T3 construct: host or cells: HEK-Blue cells
T3 sequence (Q9NR97 27-1041): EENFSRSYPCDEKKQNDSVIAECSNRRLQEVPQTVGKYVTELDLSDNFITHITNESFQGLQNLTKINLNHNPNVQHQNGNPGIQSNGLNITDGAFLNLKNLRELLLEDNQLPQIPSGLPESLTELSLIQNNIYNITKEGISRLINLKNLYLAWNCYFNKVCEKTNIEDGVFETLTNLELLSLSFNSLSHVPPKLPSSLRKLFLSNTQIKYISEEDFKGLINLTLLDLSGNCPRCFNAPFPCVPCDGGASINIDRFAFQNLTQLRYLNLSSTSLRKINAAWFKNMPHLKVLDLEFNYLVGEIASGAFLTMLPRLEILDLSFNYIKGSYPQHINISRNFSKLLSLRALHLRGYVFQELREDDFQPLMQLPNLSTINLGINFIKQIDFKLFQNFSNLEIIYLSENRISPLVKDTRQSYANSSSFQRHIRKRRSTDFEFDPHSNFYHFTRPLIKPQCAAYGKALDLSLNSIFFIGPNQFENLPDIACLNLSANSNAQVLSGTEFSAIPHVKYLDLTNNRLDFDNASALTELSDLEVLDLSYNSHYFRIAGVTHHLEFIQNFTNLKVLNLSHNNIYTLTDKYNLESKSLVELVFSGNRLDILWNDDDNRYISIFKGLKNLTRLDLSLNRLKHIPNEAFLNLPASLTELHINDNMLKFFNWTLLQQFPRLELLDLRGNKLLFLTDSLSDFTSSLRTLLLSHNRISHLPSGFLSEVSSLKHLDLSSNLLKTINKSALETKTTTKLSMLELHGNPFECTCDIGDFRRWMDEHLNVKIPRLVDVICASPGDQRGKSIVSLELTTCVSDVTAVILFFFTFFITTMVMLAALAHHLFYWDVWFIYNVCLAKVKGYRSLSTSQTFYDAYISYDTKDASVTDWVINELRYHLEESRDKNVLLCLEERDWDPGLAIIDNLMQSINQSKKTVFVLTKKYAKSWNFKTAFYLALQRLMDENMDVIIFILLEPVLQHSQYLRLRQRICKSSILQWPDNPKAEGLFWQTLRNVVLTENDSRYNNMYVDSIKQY
Summary of the method: as §1

| Structure (SMILES) | IC50 (human TLR9) | IC50 (human TLR7) | IC50 (human TLR8) |
| --- | --- | --- | --- |
| COc1ccc(-c2cc3cc(-c4ccc(N5CCN(C(C)C)CC5)cc4)ccc3[nH]c2=O)cc1OC [Example 43, 3-(3,4-dimethoxyphenyl)-6-{4-[4-(propan-2-yl)piperazin-1-yl]phenyl}-1,2-dihydroquinolin-2-one] | 0.553 µM | 5.02 µM | ≥ 50 µM |
| CC(C)N1CCN(c2ccc(-c3ccc4[nH]c(=O)c(-c5ccccc5Cl)cc4c3)cc2)CC1 [Example 44, 3-(2-chlorophenyl)-6-{4-[4-(propan-2-yl)piperazin-1-yl]phenyl}-1,2-dihydroquinolin-2-one] | 0.701 µM | 5.61 µM | ≥ 50 µM |
| CC(C)N1CCN(c2ccc(-c3ccc4[nH]c(=O)c(-c5cccc(C(F)(F)F)c5)cc4c3)cc2)CC1 [Example 45, 6-{4-[4-(propan-2-yl)piperazin-1-yl]phenyl}-3-[3-(trifluoromethyl)phenyl]-1,2-dihydroquinolin-2-one] | 0.734 µM | ≥ 50 µM | ≥ 50 µM |
| CC(C)N1CCN(c2ccc(-c3ccc4[nH]c(=O)c(-c5cccc(OC(F)(F)F)c5)cc4c3)cc2)CC1 [Example 46, 6-{4-[4-(propan-2-yl)piperazin-1-yl]phenyl}-3-[3-(trifluoromethoxy)phenyl]-1,2-dihydroquinolin-2-one] | 0.781 µM | ≥ 50 µM | ≥ 50 µM |
| CC(C)N1CCN(c2ccc(-c3ccc4[nH]c(=O)c(-c5cccc(F)c5)cc4c3)cc2)CC1 [Example 47, 3-(3-fluorophenyl)-6-{4-[4-(propan-2-yl)piperazin-1-yl]phenyl}-1,2-dihydroquinolin-2-one] | 0.857 µM | 8.62 µM | ≥ 50 µM |
| CC(C)N1CCN(c2ccc(-c3ccc4[nH]c(=O)c(-c5cn(C)c6ccccc56)cc4c3)cc2)CC1 [Example 48, 3-(1-methyl-1H-indol-3-yl)-6-(4-[4-(propan-2-yl)piperazin-1-yl]phenyl}-1,2-dihydroquinolin-2-one] | 1.16 µM | 2.15 µM | 6.88 µM |
| CNC(=O)Nc1ccc(-c2cc3cc(-c4ccc(N5CCN(C(C)C)CC5)cc4)ccc3[nH]c2=O)cc1 [Example 49, 3-methyl-1-[4-(2-oxo-6-{4-[4-(propan-2-yl)piperazin-1-yl]phenyl}-1,2-dihydroquinolin-3-yl)phenyl]urea] | 0.239 µM | 5.42 µM | ≥ 50 µM |
| CC(C)N1CCN(c2ccc(-c3ccc4c(c3)cc(-c3ccc(NC(=O)c5ccccn5)cc3)c(=O)n4C)cc2)CC1 [Example 50, N-[4-(1-methyl-2-oxo-6-{4-[4-(propan-2-yl)piperazin-1-yl]phenyl}-1,2-dihydroquinolin-3-yl)phenyl]pyridine-2-carboxamide] | 0.242 µM | 15.6 µM | ≥ 50 µM |
| CC(C)N1CCN(c2ccc(-c3ccc4[nH]c(=O)c(-c5ccc(N(C)C6CN(C)C6)cc5)cc4c3)cc2)CC1 [Example 51, 3-{4-[methyl(1-methylazetidin-3-yl)amino]phenyl}-6-{4-[4-(propan-2-yl)piperazin-1-yl]phenyl}-1,2-dihydroquinolin-2-one] | 0.242 µM | 1.34 µM | 47 µM |
| CCC(=O)Nc1ccc(-c2cc3cc(-c4ccc(N5CCN(C(C)C)CC5)cc4)ccc3[nH]c2=O)cc1 [Example 52, N-[4-(2-oxo-6-{4-[4-(propan-2-yl)piperazin-1-yl]phenyl}-1,2-dihydroquinolin-3-yl)phenyl]propanamide] | 0.243 µM | 15.1 µM | ≥ 50 µM |
| CC(C)N1CCN(c2ccc(-c3ccc4[nH]c(=O)c(-c5ccc(C(N)=O)cc5)cc4c3)cc2)CC1 [Example 53, 4-(2-oxo-6-{4-[4-(propan-2-yl)piperazin-1-yl]phenyl}-1,2-dihydroquinolin-3-yl)benzamide] | 0.257 µM | 4.52 µM | 1.24 µM |
| CNC(=O)c1ccc(-c2cc3cc(-c4ccc(N5CCN(C(C)C)CC5)cc4)ccc3[nH]c2=O)cc1 [Example 54, N-methyl-4-(2-oxo-6-{4-[4-(propan-2-yl)piperazin-1-yl]phenyl}-1,2-dihydroquinolin-3-yl)benzamide] | 0.379 µM | 13 µM | ≥ 50 µM |
| CC(C)N1CCN(c2ccc(-c3ccc4[nH]c(=O)c(-c5ccc(C(=O)N6CCOCC6)cc5)cc4c3)cc2)CC1 [Example 55, 3-[4-(morpholine-4-carbonyl)phenyl]-6-{4-[4-(propan-2-yl)piperazin-1-yl]phenyl}-1,2-dihydroquinolin-2-one] | 0.382 µM | ≥ 50 µM | ≥ 50 µM |
| CC(C)N1CCN(c2ccc(-c3ccc4[nH]c(=O)c(-c5ccc(N6CCCC6=O)cc5)cc4c3)cc2)CC1 [Example 56, 3-[4-(2-oxopyrrolidin-1-yl)phenyl]-6-{4-[4-(propan-2-yl)piperazin-1-yl]phenyl}-1,2-dihydroquinolin-2-one] | 0.4 µM | 5.98 µM | ≥ 50 µM |
